Data: patent publication US7217708B2, “3,7-Diazabicyclo [3.3.1] formulations as anti-arrhythmic compounds” (Astrazeneca AB, priority 2001, dated 2007)

melting point: 113.5 °C
Structure (SMILES): CC(C)(C)OC(=O)NCCN1CC2CN(CCCNc3ccc(C#N)cc3)CC(C1)O2 [Example 23, Compound B]
